Experimental data published in patent US20240424131A1, “TARGETING NANOPARTICLES FOR THERAPY” (University of Pittsburgh - Of the Commonwealth System of …, priority 2021, published 2024).

Test system: CT26 cells
Experiment: Transwell co-culture transcytosis, HUVECs and CT26 cells
Assay type: cell-based
Conditions: NPs applied to HUVECs in upper chamber

O=C(N/N=C/c1ccc(O)c(O)c1)c1cc2ccccc2cc1O [dynasore]
transfection of CT26 cells by Cy5.5-siRNA NPs in presence of endocytosis inhibitor: significantly inhibited
